Source: ChEMBL document CHEMBL3045835, “Comparative study of conventional and microwave-assisted synthesis of some Schiff bases and their potential as antimicrobial agents” (2012)
In brackets after ≈: the same amount, converted by molar mass.

Legend:
Type in all cases: functional
[1] = system: Pseudomonas aeruginosa; test: Antibacterial activity against Pseudomonas aeruginosa MTCC 424 at 500 ug/ml after 18 hr by cup-plate method; conditions: MTCC 424, 18 h, read-out: DIZ
[2] = system: Pseudomonas aeruginosa; test: Antibacterial activity against Pseudomonas aeruginosa MTCC 424 at 200 ug/ml after 18 hr by cup-plate method; conditions: MTCC 424, 18 h, read-out: DIZ
[3] = system: Pseudomonas aeruginosa; test: Antibacterial activity against Pseudomonas aeruginosa MTCC 424 at 100 ug/ml after 18 hr by cup-plate method; conditions: MTCC 424, 18 h, read-out: DIZ
[4] = system: Micrococcus luteus; test: Antibacterial activity against Micrococcus luteus MTCC 1538 at 1500 ug/ml after 18 hr by cup-plate method; conditions: MTCC 1538, 18 h, read-out: DIZ
[5] = system: Micrococcus luteus; test: Antibacterial activity against Micrococcus luteus MTCC 1538 at 1000 ug/ml after 18 hr by cup-plate method; conditions: MTCC 1538, 18 h, read-out: DIZ
[6] = system: Micrococcus luteus; test: Antibacterial activity against Micrococcus luteus MTCC 1538 at 500 ug/ml after 18 hr by cup-plate method; conditions: MTCC 1538, 18 h, read-out: DIZ
[7] = system: Micrococcus luteus; test: Antibacterial activity against Micrococcus luteus MTCC 1538 at 200 ug/ml after 18 hr by cup-plate method; conditions: MTCC 1538, 18 h, read-out: DIZ
[8] = system: Micrococcus luteus; test: Antibacterial activity against Micrococcus luteus MTCC 1538 at 100 ug/ml after 18 hr by cup-plate method; conditions: MTCC 1538, 18 h, read-out: DIZ
[9] = system: Bacillus pumilus; test: Antibacterial activity against Bacillus pumilus MTCC 1456 at 1500 ug/ml after 18 hr by cup-plate method; conditions: MTCC 1456, 18 h, read-out: DIZ
[10] = system: Bacillus pumilus; test: Antibacterial activity against Bacillus pumilus MTCC 1456 at 1000 ug/ml after 18 hr by cup-plate method; conditions: MTCC 1456, 18 h, read-out: DIZ
[11] = system: Bacillus pumilus; test: Antibacterial activity against Bacillus pumilus MTCC 1456 at 500 ug/ml after 18 hr by cup-plate method; conditions: MTCC 1456, 18 h, read-out: DIZ
[12] = system: Bacillus pumilus; test: Antibacterial activity against Bacillus pumilus MTCC 1456 at 200 ug/ml after 18 hr by cup-plate method; conditions: MTCC 1456, 18 h, read-out: DIZ
[13] = system: Bacillus pumilus; test: Antibacterial activity against Bacillus pumilus MTCC 1456 at 100 ug/ml after 18 hr by cup-plate method; conditions: MTCC 1456, 18 h, read-out: DIZ
[14] = system: Bacillus subtilis; test: Antibacterial activity against Bacillus subtilis MTCC 441 at 1000 ug/ml after 18 hr by cup plate method; conditions: MTCC 441, 18 h, read-out: DIZ
[15] = system: Bacillus subtilis; test: Antibacterial activity against Bacillus subtilis MTCC 441 at 1500 ug/ml after 18 hr by cup plate method; conditions: MTCC 441, 18 h, read-out: DIZ
[16] = system: Bacillus subtilis; test: Antibacterial activity against Bacillus subtilis MTCC 441 at 500 ug/ml after 18 hr by cup plate method; conditions: MTCC 441, 18 h, read-out: DIZ
[17] = system: Bacillus subtilis; test: Antibacterial activity against Bacillus subtilis MTCC 441 at 200 ug/ml after 18 hr by cup plate method; conditions: MTCC 441, 18 h, read-out: DIZ
[18] = system: Bacillus subtilis; test: Antibacterial activity against Bacillus subtilis MTCC 441 at 100 ug/ml after 18 hr by cup plate method; conditions: MTCC 441, 18 h, read-out: DIZ
[19] = system: Staphylococcus aureus; test: Antibacterial activity against Staphylococcus aureus MTCC 1430 at 1500 ug/ml after 18 hr by cup-plate method; conditions: MTCC 1430, 18 h, read-out: DIZ
[20] = system: Staphylococcus aureus; test: Antibacterial activity against Staphylococcus aureus MTCC 1430 at 1000 ug/ml after 18 hr by cup-plate method; conditions: MTCC 1430, 18 h, read-out: DIZ
[21] = system: Staphylococcus aureus; test: Antibacterial activity against Staphylococcus aureus MTCC 1430 at 500 ug/ml after 18 hr by cup-plate method; conditions: MTCC 1430, 18 h, read-out: DIZ
[22] = system: Staphylococcus aureus; test: Antibacterial activity against Staphylococcus aureus MTCC 1430 at 200 ug/ml after 18 hr by cup-plate method; conditions: MTCC 1430, 18 h, read-out: DIZ
[23] = system: Staphylococcus aureus; test: Antibacterial activity against Staphylococcus aureus MTCC 1430 at 100 ug/ml after 18 hr by cup-plate method; conditions: MTCC 1430, 18 h, read-out: DIZ
[24] = system: Penicillium chrysogenum; test: Antifungal activity against Penicillium chrysogenum MTCC 161 after 24 hr by broth dilution method; conditions: MTCC 161, 24 h
[25] = system: Aspergillus niger; test: Antifungal activity against Aspergillus niger MTCC 2546 after 24 hr by broth dilution method; conditions: MTCC 2546, 24 h
[26] = system: Escherichia coli; test: Antibacterial activity against Escherichia coli MTCC 1573 after 24 hr by broth dilution method; conditions: MTCC 1573, 24 h
[27] = system: Pseudomonas fluorescens; test: Antibacterial activity against Pseudomonas fluorescens MTCC 2421 after 24 hr by broth dilution method; conditions: MTCC 2421, 24 h

C(=N\c1nc[nH]n1)/c1cccs1
zone of inhibition at 500 µg/mL [1]: 15 mm | zone of inhibition at 200 µg/mL [2]: 13 mm | zone of inhibition at 100 µg/mL [3]: 12 mm | zone of inhibition at 1500 µg/mL [4]: 22 mm | zone of inhibition at 1000 µg/mL [5]: 20 mm | zone of inhibition at 500 µg/mL [6]: 18 mm | zone of inhibition at 200 µg/mL [7]: 16 mm | zone of inhibition at 100 µg/mL [8]: 13 mm | zone of inhibition at 1500 µg/mL [9]: 18 mm | zone of inhibition at 1000 µg/mL [10]: 17 mm | zone of inhibition at 500 µg/mL [11]: 16 mm | zone of inhibition at 200 µg/mL [12]: 15 mm | zone of inhibition at 100 µg/mL [13]: 13 mm | zone of inhibition at 1000 µg/mL [14]: 16 mm | zone of inhibition at 1500 µg/mL [15]: 22 mm | zone of inhibition at 500 µg/mL [16]: 14 mm | zone of inhibition at 200 µg/mL [17]: 11 mm | zone of inhibition at 100 µg/mL [18]: 10 mm | zone of inhibition at 1500 µg/mL [19]: 19 mm | zone of inhibition at 1000 µg/mL [20]: 18 mm | zone of inhibition at 500 µg/mL [21]: 16 mm | zone of inhibition at 200 µg/mL [22]: 13 mm | zone of inhibition at 100 µg/mL [23]: 11 mm | MIC [24]: 400 µg/mL (≈ 2240 µM) | MIC [25]: 300 µg/mL (≈ 1680 µM) | MIC [26]: 200 µg/mL (≈ 1120 µM) | MIC [27]: 300 µg/mL (≈ 1680 µM)
